For two molecules, IC50 results are on record in publication PMC3577830, “Crystal Structure of Silkworm Bombyx mori JHBP in Complex With 2-Methyl-2,4-Pentanediol: Plasticity of JH-Binding Pocket and Ligand-Induced Conformational Change of the Second Cavity in JHBP” (PLoS ONE, 2013).

Molecules are shown by their SMILES.

The target in experiment [1] is T1, juvenile hormone-binding protein (JHBP) (Bombyx mori, UniProt Q9U556).
T1 construct: gene hJHBP; recombinant mature JHBP
The experiment in a line: radioligand competition with 3H-JH III (dextran-coated charcoal).

Experiment [2] has as its target T1, juvenile hormone-binding protein (JHBP). Put plainly: crystal structure ([…] Å); competition with 3H-JH III (charcoal assay).

The term IC50 denotes the concentration needed to halve the response being measured.

In experiment [1], `COC(C)(C)CCC[C@H](C)C/C=C/C(C)=C/C(=O)OC(C)C` (racemic) [methoprene] returned an IC50 of 35 µM.
In the case of `CC(O)CC(C)(C)O` (racemic) [MPD, 2-methyl-2,4-pentanediol], the IC50 in experiment [2] worked out at 160 µM.
